# Test results taken from patent US20050048508A1, “Trehalose receptor and method for detecting trehalose with the same” (KABUSHIKI KAISHA HAYASHIBARA SEIBUTSU KAGAKU KENKYUJO, priority 2002, published 2005).
# Molecular target: T1, T1R3 with G protein α-subunits (α15 and α16/Z chimeric protein) (Mus musculus, UniProt Q925D8, I706N)
# T1 construct: expressed in transfected cells; host or cells: 293 cells, RCB 1637 (human embryonic kidney)
# T1 sequence (Q925D8 21-858 I706N): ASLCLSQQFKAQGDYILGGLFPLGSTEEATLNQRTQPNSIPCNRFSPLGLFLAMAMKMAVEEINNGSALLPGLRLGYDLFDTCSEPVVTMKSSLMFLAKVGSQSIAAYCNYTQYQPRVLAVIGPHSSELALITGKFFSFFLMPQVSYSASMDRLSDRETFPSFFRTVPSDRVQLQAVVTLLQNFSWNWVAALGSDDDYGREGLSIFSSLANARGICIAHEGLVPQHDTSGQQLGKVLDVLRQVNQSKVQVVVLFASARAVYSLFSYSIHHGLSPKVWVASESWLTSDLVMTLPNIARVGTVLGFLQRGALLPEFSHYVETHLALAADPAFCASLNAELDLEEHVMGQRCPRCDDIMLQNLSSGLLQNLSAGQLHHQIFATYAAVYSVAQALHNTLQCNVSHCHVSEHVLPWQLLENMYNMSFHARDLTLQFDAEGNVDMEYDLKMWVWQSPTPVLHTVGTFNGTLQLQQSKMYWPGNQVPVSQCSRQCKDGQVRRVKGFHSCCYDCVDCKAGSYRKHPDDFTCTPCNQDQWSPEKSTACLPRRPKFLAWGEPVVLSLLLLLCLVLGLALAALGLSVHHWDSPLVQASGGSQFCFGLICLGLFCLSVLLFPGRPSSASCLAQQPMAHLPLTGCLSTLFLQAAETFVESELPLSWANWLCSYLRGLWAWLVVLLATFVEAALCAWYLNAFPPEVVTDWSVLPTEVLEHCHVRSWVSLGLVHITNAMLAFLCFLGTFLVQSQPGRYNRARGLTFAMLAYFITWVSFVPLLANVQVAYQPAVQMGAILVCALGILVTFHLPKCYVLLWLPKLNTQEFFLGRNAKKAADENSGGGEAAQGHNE
# Experiment: Intracellular calcium ion assay, 293 cells coexpressing G protein α-subunits and T1R3 (trehalose receptor)
# Type: cell-based
# Experimental: The coexpression vector for the G protein α-subunit α15 and the G protein α16/Z chimeric protein (hereinafter designated as “G protein α-subunits”) obtained in Example 1-3 was gene transferred to 293 cells, RCB 1637, a human embryonic kidney cell line, available from the Riken Bioresource Center, Ibaraki, Japan, by conventional lipofection. The gene transferred cells were suspended in Dulbecco's Modified Eagle's Medium (D-MEM) supplemented with 1 mg/L of “PUROMYCIN”, a trade mane of puromycin commercialized by Edge Biosystems, MD, USA, and 10% (v/v) of fetal calf serum to give a cell density of 2×10^6 cells/ml and cultured in a plastic petri dish for cell culture. After 10 to 14 days of incubation, a puromycin-resistant cell colony was collected and confirmed its production of the G protein α-subunit proteins with an index of their mRNA level by conventional RT-PCR. Thus, a cell line capable of expressing the G protein α-subunit proteins was established. To the cells were gene transferred an expression vector for the sweet taste receptor protein T1R1, T1R2, or T1R3 in Example 2-2; or a coexpression vector for a pair of T1R1 and T1R2, T1R1 and T1R3, or T1R2 and T1R3 by conventional lipofection. The resulting cells were suspended in D-MEM supplemented with 1 mg/L of “PUROMYCIN”, 500 mg/L of “GENETICIN”, and 10% (v/v) of fetal calf serum and cultured in a plastic petri dish for cell culture. After 10 to 14 days of incubation, a cell colony resistant to both of the above drugs was collected and confirmed that the transferred gene had been expressed intracellularly as expected by conventional RT-PCR at a mRNA level. Thus, a cell, which had coexpressed the desired G proteins and sweet taste receptors, was obtained. As a control, a cell, into which an expression vector with no G protein α-subunit protein gene or sweet taste receptor protein gene, was prepared and used.
# The captioned reactivity test was conducted according to a conventional intracellular calcium ion assay: 293 Cells prepared in Example 3, capable of coexpressing the G protein α-subunits and the sweet taste receptor(s), were cultured in a plastic petri dish for cell culture until reaching its confluent phase. Thereafter, the cells were detached from the inner surface of the petri dish with a 0.05% (v/v) trypsin solution and a 0.53 mM EDTA solution, suspended in D-MEM supplemented with 10% (v/v) fetal calf serum to give a cell density of 1×10^6 cells/ml, and allowed to intake “FLUO-4. AM”, a reagent for detecting intracellular calcium ion commercialized by Molecular Probes Inc., Ore., USA, by adding to the cell suspension to give a final concentration of 2 μM and incubating the cells at 37 ° C. for 30 to 90 min. The resulting cells were washed with a buffer for detecting calcium ion, which contained 10 mM HEPES (pH 7.4), 130 mM sodium chloride, 5.4 mM potassium chloride, 2 mM calcium chloride, 1 mM magnesium chloride, 5.5 mM D-glucose, 0.1% (v/v) calf serum albumin, and 1 mM sodium pyruvate to remove the reagent remained extracellularly; suspended in a fresh preparation of the same buffer to give a cell density of 2.67 ×10^7 cells/ml; filtered with a membrane with a pore size of 100 μm mesh; and allowed to stand at 25° C. for 30 min. Two milliliters of the resultant cell suspension was injected into a glass cuvette, commercialized by Hitachi, Ltd., Tokyo, Japan, and analyzed on “HITACHI 650-40”, a fluorescence spectrophotometer commercialized by Hitachi, Ltd., Tokyo, Japan. […]
# [1] = 293 cells: T1R3 + G protein α-subunits, 0.67 ml of 1 M saccharide solution added to 2 ml cell suspension, FLUO-4 AM
# [2] = Table 4: sweet taste substances on cells coexpressing G protein α-subunits and T1R3, measured similarly as in Example 4
Influx of calcium ion [1],Influx of calcium ion [2],"Influx of calcium ion (293 cells: T1R3 + G protein α-subunits, 0.67 ml of 1 M saccharide solution added to 2 ml cell suspension, FLUO-4 AM, listed as trehalose)",Structure (SMILES)
Negative,Negative,–,"OC[C@H]1O[C@@](CO)(O[C@H]2O[C@H](CO)[C@@H](O)[C@H](O)[C@H]2O)[C@@H](O)[C@@H]1O [Sucrose, reference compound]"
Positive,Positive,reacted,OC[C@H]1O[C@H](O[C@H]2O[C@H](CO)[C@@H](O)[C@H](O)[C@H]2O)[C@H](O)[C@@H](O)[C@@H]1O [Trehalose]
